The text below walks through data of patent US11292796B2 (SIGNAL PHARMACEUTICALS, LLC, priority 2008, dated 2022).

For this assay, the target named is T1, mTOR (Homo sapiens, UniProt P42345).
T1 construct: purchased Invitrogen PR8683A
T1 sequence (P42345 1360-2549 limits assumed): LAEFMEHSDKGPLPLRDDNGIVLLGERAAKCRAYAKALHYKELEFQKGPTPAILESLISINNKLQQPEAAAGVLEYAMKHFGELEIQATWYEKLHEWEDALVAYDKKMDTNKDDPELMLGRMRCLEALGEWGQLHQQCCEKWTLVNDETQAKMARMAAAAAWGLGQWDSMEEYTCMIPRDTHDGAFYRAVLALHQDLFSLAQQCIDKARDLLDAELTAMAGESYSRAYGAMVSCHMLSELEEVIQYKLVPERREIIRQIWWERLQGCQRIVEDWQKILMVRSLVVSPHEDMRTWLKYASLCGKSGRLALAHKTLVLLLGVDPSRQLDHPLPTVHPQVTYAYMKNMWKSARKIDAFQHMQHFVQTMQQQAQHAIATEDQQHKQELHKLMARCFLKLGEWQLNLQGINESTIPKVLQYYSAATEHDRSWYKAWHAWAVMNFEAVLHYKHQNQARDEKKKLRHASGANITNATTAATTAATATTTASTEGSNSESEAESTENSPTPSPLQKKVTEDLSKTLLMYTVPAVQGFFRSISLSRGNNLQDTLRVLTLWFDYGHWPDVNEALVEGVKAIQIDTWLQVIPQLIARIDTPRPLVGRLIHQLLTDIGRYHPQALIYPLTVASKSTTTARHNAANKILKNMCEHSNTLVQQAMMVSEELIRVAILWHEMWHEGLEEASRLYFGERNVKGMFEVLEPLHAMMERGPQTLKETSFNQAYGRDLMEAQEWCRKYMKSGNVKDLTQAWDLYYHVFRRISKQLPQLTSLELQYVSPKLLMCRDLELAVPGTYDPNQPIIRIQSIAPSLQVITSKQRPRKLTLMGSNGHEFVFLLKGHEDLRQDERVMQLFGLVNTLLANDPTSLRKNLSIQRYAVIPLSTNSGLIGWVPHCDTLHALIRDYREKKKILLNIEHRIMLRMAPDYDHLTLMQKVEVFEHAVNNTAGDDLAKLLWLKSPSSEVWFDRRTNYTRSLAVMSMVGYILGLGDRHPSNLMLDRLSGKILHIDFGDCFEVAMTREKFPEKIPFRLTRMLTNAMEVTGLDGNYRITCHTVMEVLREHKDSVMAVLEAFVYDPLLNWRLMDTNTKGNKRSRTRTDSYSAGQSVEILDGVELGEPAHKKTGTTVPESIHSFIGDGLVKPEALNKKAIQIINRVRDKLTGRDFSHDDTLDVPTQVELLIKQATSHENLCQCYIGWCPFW
The assay is described as follows: mTOR HTR-FRET assay. The format is biochemical. The conditions noted are these: read-out: Act. Level (IC50 in mTor HTR-FRET assay). In outline:
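Test compounds, taken from 10 mM DMSO stocks and diluted, were mixed with mTOR enzyme (0.200 μg/mL) in Tris buffer pH 7.4 with 100 mM NaCl, 0.1% Tween-20 and 1 mM DTT. ATP/substrate addition initiated the reaction, alongside compound-free controls.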
One may read the IC50 as the concentration that gives 50% inhibition. `CO[C@H]1CC[C@H](CN2CC(=O)Nc3ncc(-c4ccc(C(C)(C)O)nc4)nc32)C1` [Example 53, 6-(6-(2-hydroxypropan-2-yl)pyridin-3-yl)-4-(((1S,3S)-3-methoxycyclopentyl)methyl)-3,4-dihydropyrazino[2,3-b]pyrazin-2(1H)-one]: the IC50 lay in the range of 0.005 to 250 nM.
Regarding `Cc1nc(-c2nnc[nH]2)ccc1-c1cnc2c(n1)N(CC1CCCC1)CC(=O)N2` [Example 99, 4-(cyclopentylmethyl)-6-(2-methyl-6-(4H-1,2,4-triazol-3-yl)pyridin-3-yl)-3,4-dihydropyrazino[2,3-b]pyrazin-2(1H)-one], the IC50 was in the range of 0.005 to 250 nM.
The same measure for `CC(C)(O)c1ccc(-c2cnc3c(n2)N(CCc2ccccc2)CC(=O)N3)cn1` [Example 124, 6-(6-(2-hydroxypropan-2-yl)pyridin-3-yl)-4-phenethyl-3,4-dihydropyrazino[2,3-b]pyrazin-2(1H)-one]: 250 to 500 nM; for `CC(C)(O)c1ccc(-c2cnc3c(n2)N(C2CCNCC2)CC(=O)N3)cn1` [Example 108, 6-(6-(2-hydroxypropan-2-yl)pyridin-3-yl)-4-(piperidin-4-yl)-3,4-dihydropyrazino[2,3-b]pyrazin-2(1H)-one]: 1000 to 10000 nM; for `CC(C)(O)c1ccc(-c2cnc3c(n2)N(CCC2CCOCC2)C(C)(C)C(=O)N3)cn1` [Example 85, 6-(6-(2-hydroxypropan-2-yl)pyridin-3-yl)-3,3-dimethyl-4-(2-(tetrahydro-2H-pyran-4-yl)ethyl)-3,4-dihydropyrazino[2,3-b]pyrazin-2(1H)-one]: 500 to 1000 nM.
With `CO[C@H]1CC[C@H](N2CC(=O)Nc3ncc(-c4ccc(-c5nc[nH]n5)c(F)c4C)nc32)CC1` [Example 29, 6-(3-fluoro-2-methyl-4-(1H-1,2,4-triazol-3-yl)phenyl)-4-(trans-4-methoxycyclohexyl)-3,4-dihydropyrazino[2,3-b]pyrazin-2(1H)-one], the IC50 is 0.005 to 250 nM.
As for `Cc1cc(C(C)(C)O)ncc1-c1cnc2c(n1)N(CC1CCOCC1)CC(=O)N2` [Example 78, 6-(6-(2-hydroxypropan-2-yl)-4-methylpyridin-3-yl)-4-((tetrahydro-2H-pyran-4-yl)methyl)-3,4-dihydropyrazino[2,3-b]pyrazin-2(1H)-one], the IC50 lay in the range of 0.005 to 250 nM.
Regarding `CO[C@H]1CC[C@H](CN2CC(=O)Nc3ncc(-c4ccc(C(C)(C)O)cc4)nc32)CC1` [Example 87, 6-(4-(2-hydroxypropan-2-yl)phenyl)-4-((trans-4-methoxycyclohexyl)methyl)-3,4-dihydropyrazino[2,3-b]pyrazin-2(1H)-one], the 50% inhibitory concentration (IC50) is 250 to 500 nM.
As for `CC(C)(O)c1ccc(-c2cnc3c(n2)N(CCN2CCOCC2)C(=O)CN3)cn1` [Example 216, 7-(6-(2-hydroxypropan-2-yl)pyridin-3-yl)-1-(2-morpholinoethyl)-3,4-dihydropyrazino[2,3-b]pyrazin-2(1H)-one], the IC50 was in the range of 0.005 to 250 nM.
Regarding `O=C1CN(Cc2cccc(C(F)(F)F)c2)c2nc(-c3ccc(-c4nnc[nH]4)cc3)cnc2N1` [Example 145, 6-(4-(4H-1,2,4-triazol-3-yl)phenyl)-4-(3-(trifluoromethyl)benzyl)-3,4-dihydropyrazino[2,3-b]pyrazin-2(1H)-one], the IC50 is 0.005 to 250 nM.
Take `Cc1cc(-c2nnc[nH]2)ccc1-c1cnc2c(n1)N1CCOCC1C(=O)N2` (centres unmarked) [Example 138, 9-(4-(4H-1,2,4-triazol-3-yl)-2-methylphenyl)-6,11,4a-trihydromorpholino[4,3-e]pyrazino[2,3-b]pyrazin-5-one]: the half-inhibitory concentration (IC50) lay in the range of 0.005 to 250 nM.
As to `Cc1cc(-c2nnc[nH]2)ccc1-c1cnc2c(n1)NC1(CC1)C(=O)N2` [Example 66, 7′-(2-methyl-4-(4H-1,2,4-triazol-3-yl)phenyl)-1′H-spiro[cyclopropane-1,2′-pyrazino[2,3-b]pyrazin]-3′(4′H)-one], the IC50 is 0.005 to 250 nM.
Take `CO[C@@H]1CC[C@H](N2C(=O)CNc3ncc(-c4ccc(-c5nnc[nH]5)nc4C)nc32)C1` [Example 226, 1-((1S,3R)-3-methoxycyclopentyl)-7-(2-methyl-6-(4H-1,2,4-triazol-3-yl)pyridin-3-yl)-3,4-dihydropyrazino[2,3-b]pyrazin-2(1H)-one]: the half-maximal inhibitory concentration (IC50) lay within 0.005 to 250 nM.
`C[C@H]1C(=O)Nc2ncc(-c3ccc(C(C)(C)O)nc3)nc2N1CCC1CCOCC1` [Example 132, (S)-6-(6-(2-hydroxypropan-2-yl)pyridin-3-yl)-3-methyl-4-(2-(tetrahydro-2H-pyran-4-yl)ethyl)-3,4-dihydropyrazino[2,3-b]pyrazin-2(1H)-one]: the IC50 was 0.005 to 250 nM.
In the case of `Cc1cc(-c2nc[nH]n2)c(F)cc1-c1cnc2c(n1)N(C(C)C)C(=O)CN2` [Example 176, 7-(5-fluoro-2-methyl-4-(1H-1,2,4-triazol-3-yl)phenyl)-1-isopropyl-3,4-dihydropyrazino[2,3-b]pyrazin-2(1H)-one] it was 0.005 to 250 nM; in that of `COCCCN1C(=O)CNc2ncc(-c3ccc(C(C)(C)O)nc3)nc21` [Example 259, 7-(6-(2-hydroxypropan-2-yl)pyridin-3-yl)-1-(3-methoxypropyl)-3,4-dihydropyrazino[2,3-b]pyrazin-2(1H)-one], 0.005 to 250 nM; in that of `CO[C@@H]1CC[C@@H](N2C(=O)CNc3ncc(-c4ccc(C(C)(C)O)nc4)nc32)C1` [Example 208, 7-(6-(2-hydroxypropan-2-yl)pyridin-3-yl)-1-((1R,3R)-3-methoxycyclopentyl)-3,4-dihydropyrazino[2,3-b]pyrazin-2(1H)-one], 0.005 to 250 nM.
With `O=C1CN(CCC2CCOCC2)c2nc(-c3ccc4cc[nH]c4c3)cnc2N1` [Example 44, 6-(1H-indol-6-yl)-4-(2-(tetrahydro-2H-pyran-4-yl)ethyl)-3,4-dihydropyrazino[2,3-b]pyrazin-2(1H)-one], the IC50 fell in the range of 250 to 500 nM.
Take `CC(C)(O)c1ccc(-c2cnc3c(n2)N(C[C@@H]2CCCO2)CC(=O)N3)cn1` [Example 115, (S)-6-(6-(2-hydroxypropan-2-yl)pyridin-3-yl)-4-((tetrahydrofuran-2-yl)methyl)-3,4-dihydropyrazino[2,3-b]pyrazin-2(1H)-one]: the half-inhibitory concentration (IC50) lay in the range of 1000 to 10000 nM.
In the case of `CC(C)(O)c1ccc(-c2cnc3c(n2)N(CCN2CCOCC2)CC(=O)N3)cn1` [Example 123, 6-(6-(2-hydroxypropan-2-yl)pyridin-3-yl)-4-(2-morpholinoethyl)-3,4-dihydropyrazino[2,3-b]pyrazin-2(1H)-one] it was 1000 to 10000 nM; in that of `Cc1nc(-c2nnc[nH]2)ccc1-c1cnc2c(n1)N(CC1CCOCC1)CC(=O)N2` [Example 93, 6-(2-methyl-6-(4H-1,2,4-triazol-3-yl)pyridin-3-yl)-4-((tetrahydro-2H-pyran-4-yl)methyl)-3,4-dihydropyrazino[2,3-b]pyrazin-2(1H)-one], 250 to 500 nM.
As for `CO[C@@H]1CC[C@@H](N2CC(=O)Nc3ncc(-c4ccc(C(C)(C)O)nc4)nc32)C1` [Example 56, 6-(6-(2-hydroxypropan-2-yl)pyridin-3-yl)-4-((1R,3R)-3-methoxycyclopentyl)-3,4-dihydropyrazino[2,3-b]pyrazin-2(1H)-one], the IC50 lay in the range of 0.005 to 250 nM.
The same measure for `COc1ccc(-c2cnc3c(n2)N(CCC2CCOCC2)C(=O)CN3)cn1` [Example 191, 7-(6-methoxypyridin-3-yl)-1-(2-(tetrahydro-2H-pyran-4-yl)ethyl)-3,4-dihydropyrazino[2,3-b]pyrazin-2(1H)-one]: 500 to 1000 nM.
